Antimicrobial effect data for one compound are collected here from US20080171721A1, “Halogenated alkyl di- and trisaccharides, pharmaceutical formulations, diagnostic kits and methods of treatment” (priority 2007, published 2008).

The test system of assay [1] is S. aureus. Nature of the assay: Antimicrobial testing, time-kill with plate count. Format: cell-based, Staphylococcus aureus. The conditions noted are these: antimicrobial if greater than 5 log reduction. The protocol:
(§1) The preferred embodiment was tested for antimicrobial activity using the following procedure.
(§2) A 1% solution of Compound 3 was prepared in DPBS (Dulbecco's phosphate buffered saline). A 25 ml mixture of the 1% Compound 3 and PBS (phosphate buffered saline, pH 7.2 was prepared by mixing 5 ml of the 1% Compound 3 solution and 20 ml of the PBS.
(§3) A 10 ml aliquot of the above mixture was placed into each of two sterile test tubes. One test tube was inoculated with 0.1 ml of S. aureus and the other with 0.1 ml of P. aeruginosa, such that there was a final concentration of 10^6 colony-forming units (CFU)/0.1 mls.
(§4) A various time points, 1.0 ml of each inoculated test sample were removed, diluted 10× with 0.45% saline and plated on trypticase soy agar (TSA) plates.
(§5) The plates were incubated at 30-35° C. for not less than 24 hours. Concentration of CFU in the samples taken at each time point were enumerated by standard methods. The log reduction was calculated for each time period and organism. The log reduction was calculated using the formula: Log reduction=Log inoculums verification−sample log recovery.

For assay [2], the system named is P. aeruginosa. The experiment in a line: Antimicrobial testing, time-kill with plate count. The class given is cell-based, Pseudomonas aeruginosa. The conditions noted are these: antimicrobial if greater than 5 log reduction. The protocol: as §1, §2, §3, §4, §5

Each structure is given as a SMILES string.

Regarding `CCCCCCCCCCCC(=O)OCC1O[C@H](O[C@@]2(CCl)O[C@H](CCl)C(O)C2O)C(O)C(O)[C@H]1Cl` (stereo in doubt) [Compound 3, 1′,6′-Dichloro-1′,6′-dideoxy-β-D-fructofuranosyl-4-chloro-4-deoxy-6-O-monododecanoate-α-galactopyranoside], the antimicrobial effect result is “has antimicrobial effect against S. aureus” in assay [1] and “not P. aeruginosa” in assay [2].
